Tests used:
Histone deacetylase = experiment: Inhibition of HDAC (unknown origin); format: protein assay, Homo sapiens
THP-1 = experiment: Growth inhibition of human THP-1 cells; format: functional
[1] = biological target: T1, Bromodomain-containing protein 4 (Homo sapiens, UniProt O60885); experiment: Inhibition of BRD4 BD2 domain (unknown origin)
OCI-AML-3 = experiment: Antiproliferative activity against human OCI-AML-3 cells by MTT assay; format: functional, cell-based
MV4-11 = experiment: Antiproliferative activity against human MV4-11 cells by MTT assay; format: functional, cell-based
OCI-AML2 = experiment: Antiproliferative activity against human OCI-AML2 cells by MTT assay; format: functional, cell-based
Histone deacetylase 1 [2] = biological target: T2, Histone deacetylase 1 (Homo sapiens, UniProt Q13547); experiment: Inhibition of HDAC1 (unknown origin)
T2 sequence (Q13547 whole entry): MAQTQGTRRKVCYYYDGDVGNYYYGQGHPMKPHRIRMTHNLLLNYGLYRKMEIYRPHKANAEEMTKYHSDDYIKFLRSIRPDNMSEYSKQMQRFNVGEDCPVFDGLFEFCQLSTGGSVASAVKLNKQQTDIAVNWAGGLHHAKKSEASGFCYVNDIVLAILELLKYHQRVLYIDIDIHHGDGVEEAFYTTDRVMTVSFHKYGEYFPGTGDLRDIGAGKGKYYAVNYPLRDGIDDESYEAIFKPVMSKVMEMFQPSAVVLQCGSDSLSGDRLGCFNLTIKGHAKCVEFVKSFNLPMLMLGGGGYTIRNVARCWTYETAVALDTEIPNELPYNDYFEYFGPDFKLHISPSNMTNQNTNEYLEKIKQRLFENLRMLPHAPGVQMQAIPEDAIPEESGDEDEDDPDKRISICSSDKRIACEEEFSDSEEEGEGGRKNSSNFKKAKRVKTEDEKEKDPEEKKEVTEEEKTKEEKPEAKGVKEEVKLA

[3] = biological target: T1, Bromodomain-containing protein 4; experiment: Inhibition of BRD4 (unknown origin)
[4] = biological target: T3, Epidermal growth factor receptor (Homo sapiens, UniProt P00533); experiment: Inhibition of EGFR (unknown origin)
T3 sequence (P00533 whole entry): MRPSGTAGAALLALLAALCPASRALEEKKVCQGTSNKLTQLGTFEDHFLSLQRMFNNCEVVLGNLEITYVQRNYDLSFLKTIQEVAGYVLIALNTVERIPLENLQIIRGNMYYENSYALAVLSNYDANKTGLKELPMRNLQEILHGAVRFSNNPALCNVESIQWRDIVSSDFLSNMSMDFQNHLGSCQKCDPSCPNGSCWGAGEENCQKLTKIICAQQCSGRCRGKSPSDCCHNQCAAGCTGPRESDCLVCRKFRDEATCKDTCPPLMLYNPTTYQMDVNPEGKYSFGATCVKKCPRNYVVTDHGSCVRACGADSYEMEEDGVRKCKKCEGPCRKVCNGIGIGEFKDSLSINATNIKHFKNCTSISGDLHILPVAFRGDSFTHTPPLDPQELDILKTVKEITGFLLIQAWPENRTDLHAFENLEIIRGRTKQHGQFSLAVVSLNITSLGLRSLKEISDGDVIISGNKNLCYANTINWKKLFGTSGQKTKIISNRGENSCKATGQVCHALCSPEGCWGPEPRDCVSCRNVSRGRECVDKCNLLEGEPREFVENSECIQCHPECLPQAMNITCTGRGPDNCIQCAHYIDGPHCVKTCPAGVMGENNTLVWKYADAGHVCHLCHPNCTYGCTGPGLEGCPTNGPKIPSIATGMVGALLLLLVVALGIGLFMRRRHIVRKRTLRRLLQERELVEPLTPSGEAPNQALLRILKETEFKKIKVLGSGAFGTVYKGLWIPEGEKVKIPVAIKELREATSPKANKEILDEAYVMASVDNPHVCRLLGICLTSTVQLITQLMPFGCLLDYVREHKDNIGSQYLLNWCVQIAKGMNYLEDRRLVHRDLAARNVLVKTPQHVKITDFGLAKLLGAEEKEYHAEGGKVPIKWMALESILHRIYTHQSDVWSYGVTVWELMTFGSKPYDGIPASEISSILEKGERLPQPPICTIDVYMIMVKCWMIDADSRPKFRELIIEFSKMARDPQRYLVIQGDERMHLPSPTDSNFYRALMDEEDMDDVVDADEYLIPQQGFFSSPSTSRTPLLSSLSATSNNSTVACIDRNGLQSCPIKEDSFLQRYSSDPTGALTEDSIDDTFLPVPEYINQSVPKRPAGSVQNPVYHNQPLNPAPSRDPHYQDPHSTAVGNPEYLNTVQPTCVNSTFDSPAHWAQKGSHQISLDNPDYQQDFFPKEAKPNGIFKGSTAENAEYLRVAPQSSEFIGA

MCF7 = experiment: Cytotoxicity against human MCF7 cells assessed as reduction in cell viability by MTT assay; format: functional, cell-based
Histone deacetylase 3 = Histone deacetylase 3 (Homo sapiens, UniProt O15379); experiment: Inhibition of recombinant human HDAC3 expressed in baculovirus expression system using Ac-Lys-Tyr-Lys (epsilon-acetyl)-AMC as substrate after 24 hrs by fluorescence assay
Histone deacetylase 3, sequence (O15379 whole entry): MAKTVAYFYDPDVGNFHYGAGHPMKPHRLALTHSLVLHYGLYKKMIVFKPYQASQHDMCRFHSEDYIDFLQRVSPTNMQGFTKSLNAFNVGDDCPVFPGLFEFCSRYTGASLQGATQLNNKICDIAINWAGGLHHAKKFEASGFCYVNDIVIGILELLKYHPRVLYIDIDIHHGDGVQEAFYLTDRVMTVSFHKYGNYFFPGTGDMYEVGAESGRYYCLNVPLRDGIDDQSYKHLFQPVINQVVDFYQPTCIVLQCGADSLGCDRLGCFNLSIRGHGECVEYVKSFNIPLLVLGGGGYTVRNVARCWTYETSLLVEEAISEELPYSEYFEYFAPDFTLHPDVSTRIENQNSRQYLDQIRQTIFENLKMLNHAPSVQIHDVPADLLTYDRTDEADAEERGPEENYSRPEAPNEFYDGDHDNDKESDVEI

[5] = biological target: Receptor tyrosine-protein kinase erbB-2 (Homo sapiens) (UniProt P04626); experiment: Inhibition of HER2 (unknown origin) at 10 ug/ml using biotinylated peptide as substrate in presence of ATP relative to control; conditions: dose 10.0 µg/ml
Receptor tyrosine-protein kinase erbB-2 (Homo sapiens), sequence (P04626 whole entry): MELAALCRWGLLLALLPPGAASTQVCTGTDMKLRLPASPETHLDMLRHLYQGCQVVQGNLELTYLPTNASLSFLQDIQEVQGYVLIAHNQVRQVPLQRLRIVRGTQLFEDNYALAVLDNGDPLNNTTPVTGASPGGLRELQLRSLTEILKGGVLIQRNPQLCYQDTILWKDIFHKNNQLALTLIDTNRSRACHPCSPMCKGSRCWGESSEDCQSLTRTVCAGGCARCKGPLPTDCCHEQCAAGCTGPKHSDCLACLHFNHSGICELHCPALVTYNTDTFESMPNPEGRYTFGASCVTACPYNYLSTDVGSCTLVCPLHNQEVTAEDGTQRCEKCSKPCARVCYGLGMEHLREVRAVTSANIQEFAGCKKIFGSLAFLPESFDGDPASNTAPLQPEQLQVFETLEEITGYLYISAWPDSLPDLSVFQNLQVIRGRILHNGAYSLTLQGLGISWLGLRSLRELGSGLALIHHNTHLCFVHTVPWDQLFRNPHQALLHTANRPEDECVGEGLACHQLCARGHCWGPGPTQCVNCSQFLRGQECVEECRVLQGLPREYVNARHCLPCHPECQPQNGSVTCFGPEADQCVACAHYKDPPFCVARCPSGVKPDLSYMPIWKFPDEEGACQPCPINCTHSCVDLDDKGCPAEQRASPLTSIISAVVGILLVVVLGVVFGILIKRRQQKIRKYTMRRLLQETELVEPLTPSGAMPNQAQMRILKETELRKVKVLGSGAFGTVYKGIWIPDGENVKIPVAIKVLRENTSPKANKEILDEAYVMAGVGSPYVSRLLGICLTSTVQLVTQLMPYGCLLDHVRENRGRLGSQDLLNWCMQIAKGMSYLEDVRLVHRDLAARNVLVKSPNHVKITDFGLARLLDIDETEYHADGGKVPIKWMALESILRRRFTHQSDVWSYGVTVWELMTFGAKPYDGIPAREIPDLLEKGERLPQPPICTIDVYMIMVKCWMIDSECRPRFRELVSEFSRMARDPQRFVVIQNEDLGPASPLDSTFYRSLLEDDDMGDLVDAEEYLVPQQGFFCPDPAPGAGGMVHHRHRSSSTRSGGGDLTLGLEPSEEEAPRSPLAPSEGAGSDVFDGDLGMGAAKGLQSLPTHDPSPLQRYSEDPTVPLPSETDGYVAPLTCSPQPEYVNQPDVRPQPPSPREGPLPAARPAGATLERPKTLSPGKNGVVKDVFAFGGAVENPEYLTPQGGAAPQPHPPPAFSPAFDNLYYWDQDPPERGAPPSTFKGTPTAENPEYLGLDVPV

[6] = biological target: Protein deacetylase HDAC6 (Homo sapiens, UniProt Q9UBN7); experiment: Inhibition of recombinant human HDAC6 expressed in baculovirus expression system using Ac-Lys-Tyr-Lys (epsilon-acetyl)-AMC as substrate after 24 hrs by fluorescence assay
Protein deacetylase HDAC6, sequence (Q9UBN7 whole entry): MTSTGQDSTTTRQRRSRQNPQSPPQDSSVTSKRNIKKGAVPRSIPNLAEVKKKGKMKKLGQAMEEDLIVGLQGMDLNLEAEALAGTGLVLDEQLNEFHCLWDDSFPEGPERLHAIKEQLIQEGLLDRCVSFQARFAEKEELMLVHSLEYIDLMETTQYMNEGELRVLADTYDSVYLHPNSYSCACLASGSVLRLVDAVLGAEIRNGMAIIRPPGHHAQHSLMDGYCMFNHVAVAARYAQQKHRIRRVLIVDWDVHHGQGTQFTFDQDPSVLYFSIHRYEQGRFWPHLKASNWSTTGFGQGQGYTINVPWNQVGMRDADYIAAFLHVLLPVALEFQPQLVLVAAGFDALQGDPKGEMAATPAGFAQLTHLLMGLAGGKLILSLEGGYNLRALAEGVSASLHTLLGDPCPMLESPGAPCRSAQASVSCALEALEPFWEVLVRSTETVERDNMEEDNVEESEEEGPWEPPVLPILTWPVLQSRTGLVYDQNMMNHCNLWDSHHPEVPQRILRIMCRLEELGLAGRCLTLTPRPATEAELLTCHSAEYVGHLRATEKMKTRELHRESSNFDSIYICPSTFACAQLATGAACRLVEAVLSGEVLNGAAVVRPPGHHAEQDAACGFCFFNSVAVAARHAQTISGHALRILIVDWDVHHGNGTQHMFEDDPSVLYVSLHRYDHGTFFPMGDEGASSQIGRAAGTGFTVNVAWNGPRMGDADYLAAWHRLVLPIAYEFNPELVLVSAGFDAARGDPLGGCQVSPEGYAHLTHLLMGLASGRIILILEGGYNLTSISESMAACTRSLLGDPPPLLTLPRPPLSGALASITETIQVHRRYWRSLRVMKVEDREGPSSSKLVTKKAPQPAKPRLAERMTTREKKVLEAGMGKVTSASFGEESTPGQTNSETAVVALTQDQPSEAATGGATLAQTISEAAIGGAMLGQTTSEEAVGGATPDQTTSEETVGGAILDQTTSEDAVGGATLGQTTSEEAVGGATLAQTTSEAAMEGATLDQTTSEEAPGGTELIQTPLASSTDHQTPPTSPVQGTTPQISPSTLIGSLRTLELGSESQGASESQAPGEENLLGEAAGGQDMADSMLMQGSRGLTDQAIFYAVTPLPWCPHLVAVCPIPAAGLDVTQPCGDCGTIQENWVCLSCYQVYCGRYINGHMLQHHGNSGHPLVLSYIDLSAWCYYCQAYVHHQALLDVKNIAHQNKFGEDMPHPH

Histone deacetylase 1 [7] = biological target: T2, Histone deacetylase 1; experiment: Inhibition of recombinant human HDAC1 expressed in baculovirus expression system using Ac-Lys-Tyr-Lys (epsilon-acetyl)-AMC as substrate after 24 hrs by fluorescence assay
[8] = biological target: T3, Epidermal growth factor receptor; experiment: Inhibition of GST-tagged EGFR (unknown origin) at 10 ug/ml using biotinylated peptide as substrate in presence of ATP relative to control; conditions: dose 10.0 µg/ml

Row | SMILES | IC50 (Histone deacetylase) [nM] | GI50 (THP-1) [nM] | other results
1 | C#Cc1cccc(NC(=O)c2cc(OCCCCCCC(=O)NO)ccc2O)c1 | < 1000 | – | –
2 | O=C(CCCCCC(=O)Nc1ccc(O)c(C(=O)Nc2cccc(F)c2)c1)NO | < 1000 | – | –
3 | COc1cc(OC)c2c(=O)[nH]c(-c3ccc(Oc4ccc(C(=O)NO)cn4)cc3)nc2c1 | 291 | 15500 | –
4 | COc1cc(OC)c2c(=O)[nH]c(-c3ccc(OCCCCC(=O)NO)cc3)nc2c1 | 291 | 15500 | –
5 | O=C(CCCCCC(=O)Nc1ccc(O)c(C(=O)Nc2ccc(Cl)c(C(F)(F)F)c2)c1)NO | < 1000 | – | –
6 | Cc1ccccc1Cc1cn(CCCCCC(=O)NO)c2ccc(-c3c(C)noc3C)cc12 | 291 | 15500 | –
7 | COc1cc(OC)c2c(=O)[nH]c(-c3ccc(OCCCC(=O)NO)cc3)nc2c1 | 32 | 15500 | IC50 [1]: 225 nM; IC50 (OCI-AML-3): 1090 nM; IC50 (MV4-11): 1670 nM; IC50 (OCI-AML2): 1520 nM
8 | Cn1cc(-c2ccnc(Nc3ccc(C(=O)NCCCCCC(=O)NO)cc3)n2)c2ccccc21 | < 1000 | – | –
9 | COc1cc(OC)c2c(=O)[nH]c(-c3ccc(OCCCCCC(=O)NO)cc3)nc2c1 | 291 | 15500 | –
10 | C#Cc1cccc(NC(=O)c2cc(NC(=O)CCCCCC(=O)NO)ccc2O)c1 | < 1000 | – | –
11 | Cc1noc(C)c1-c1ccc2c(c1)c(Cc1ccc(F)cc1)cn2CCCCCC(=O)NO | 291 | 15500 | –
12 | CC(=O)N1c2ccc(-c3ccc(NC(=O)CCCCCCC(=O)NO)cc3)cc2[C@H](NC(=O)OC(C)C)C[C@@H]1C | – | – | IC50 (Histone deacetylase 1 [2]): 150 nM
13 | COc1cc(OC)c2c(=O)[nH]c(-c3ccc(OC/C=C/C(=O)NO)cc3)nc2c1 | 291 | 15500 | –
14 | Cc1noc(C)c1-c1ccc2c(c1)c(Cc1ccccc1)cn2CCCCCCC(=O)NO | 291 | 15500 | –
15 | Cc1noc(C)c1-c1cc(NC(=O)CCCCCC(=O)NO)cc(C(=O)c2ccccc2)c1 | – | – | IC50 [3]: 670 nM; IC50 (Histone deacetylase 1 [2]): 150 nM
16 | O=C(CCCCCC(=O)Nc1ccc(O)c(C(=O)Nc2ccc(F)c(Cl)c2)c1)NO | < 1000 | – | –
17 | O=C(CCCCCC(=O)Nc1ccc(O)c(C(=O)Nc2ccccc2)c1)NO | < 1000 | – | –
18 | COc1cc(OC)c2c(=O)[nH]c(-c3cc(C)c(OCCCCC(=O)NO)c(C)c3)nc2c1 | – | – | IC50 [3]: 670 nM; IC50 (Histone deacetylase 1 [2]): 150 nM
19 | Cn1cc(-c2ccnc(Nc3ccc(C(=O)NO)cc3)n2)c2ccccc21 | < 1000 | – | –
20 | O=C(CCCCCCC(=O)Nc1ccccc1)NO [VORINOSTAT] | – | – | IC50 [4]: 900 nM

Row | SMILES | IC50 (Histone deacetylase) [nM] | GI50 (THP-1) [nM] | other results
21 | COc1cc(C(=O)NCCCCC(=O)NO)ccc1Nc1nccc(-c2cn(C)c3ccccc23)n1 | < 1000 | – | –
22 | Cc1noc(C)c1-c1ccc2c(c1)c(Cc1ccccc1)cn2CCCCCC(=O)NO | 291 | 15500 | –
23 | C=CC(=O)Nc1cc(Nc2nccc(-c3cn(C)c4ccccc34)n2)c(OC)cc1N(C)CCN(C)C [OSIMERTINIB] | < 1000 | – | –
24 | COc1cc(OC)c2c(=O)[nH]c(-c3cc(C)c(O)c(C)c3)nc2c1 | 291000 | 15500 | –
25 | COc1cc(C(=O)NCCCCCC(=O)NO)ccc1Nc1nccc(-c2cn(C)c3ccccc23)n1 | < 1000 | – | –
26 | Cn1cc(-c2ccnc(Nc3ccc(C(=O)NCCC(=O)NO)cc3)n2)c2ccccc21 | < 1000 | – | –
27 | Cc1ccc(Cc2cn(CCCCCCC(=O)NO)c3ccc(-c4c(C)noc4C)cc23)cc1 | 291 | 15500 | –
28 | COc1cc(OC)c2c(=O)[nH]c(-c3ccc(OCCCCCCCC(=O)NO)cc3)nc2c1 | 291 | 15500 | –
29 | O=C(CCCCCC(=O)Nc1ccc(O)c(C(=O)Nc2ccc(OCc3cccc(F)c3)c(Cl)c2)c1)NO | < 1000 | – | –
30 | O=C(CCCCCC(=O)Nc1ccc(O)c(C(=O)Nc2ccc(Cl)c(Cl)c2)c1)NO | < 1000 | – | –
31 | Cc1noc(C)c1-c1ccc2c(c1)c(CCc1ccccc1)cn2CCCCCCC(=O)NO | 291 | 15500 | –
32 | Cn1cc(-c2ccnc(Nc3ccc(C(=O)NCCCCC(=O)NO)cc3)n2)c2ccccc21 | < 1000 | – | –
33 | COc1cc(C(=O)NCCC(=O)NO)ccc1Nc1nccc(-c2cn(C)c3ccccc23)n1 | < 1000 | – | –
34 | C#Cc1cccc(NC(=O)c2cc(NC(=O)CCCCCCC(=O)NO)ccc2O)c1 | < 1000 | – | –
35 | Cc1cccc(Cc2cn(CCCCCCC(=O)NO)c3ccc(-c4c(C)noc4C)cc23)c1 | 291 | 15500 | –
36 | Cc1ccc(Cc2cn(CCCCCC(=O)NO)c3ccc(-c4c(C)noc4C)cc23)cc1 | 291 | 15500 | –
37 | Cc1noc(C)c1-c1ccc2c(c1)c(CCc1ccccc1)cn2CCCCCC(=O)NO | 291 | 15500 | –
38 | COc1cc2/c(=N/c3ccc(Br)cc3F)nc[nH]c2cc1OCC1CCN(C)CC1 [VANDETANIB] | – | – | IC50 (MCF7): 18500 nM
39 | Cc1noc(C)c1-c1ccc2c(c1)c(CCc1ccc(F)cc1)cn2CCCCCC(=O)NO | 291 | 15500 | –
40 | O=C(CCCCOc1ccccc1C(=O)Nc1cccc2[nH]cnc12)NO | 2700 | – | IC50 [3]: 260 nM; IC50 (Histone deacetylase 1 [2]): 150 nM

Row | SMILES | IC50 (Histone deacetylase) [nM] | GI50 (THP-1) [nM] | other results
41 | O=C(CCCCCC(=O)Nc1ccc(O)c(C(=O)Nc2cccc(C(F)(F)F)c2)c1)NO | < 1000 | – | –
42 | COc1cc(OC)c2c(=O)[nH]c(-c3ccc(OCc4cc(C)c(/C=C/C(=O)NO)c(C)c4)cc3)nc2c1 | 291 | 15500 | –
43 | Cn1cc(-c2ccnc(Nc3ccc(C(=O)Nc4ccccc4N)cc3)n2)c2ccccc21 | < 1000 | – | –
44 | Cc1ccccc1Cc1cn(CCCCCCC(=O)NO)c2ccc(-c3c(C)noc3C)cc12 | 291 | 15500 | –
45 | Cn1cc(-c2ccnc(Nc3ccc(C(=O)NCCCC(=O)NO)cc3)n2)c2ccccc21 | < 1000 | – | –
46 | Cc1noc(C)c1-c1ccc2c(c1)c(Cc1ccc(F)cc1)cn2CCCCCCC(=O)NO | – | – | IC50 [3]: 670 nM; IC50 (Histone deacetylase 1 [2]): 150 nM
47 | Cc1noc(C)c1-c1ccc2c(c1)c(Cc1cccc(C(F)(F)F)c1)cn2CCCCCC(=O)NO | 291 | 15500 | –
48 | COc1cc(O)c(C(=O)Nc2ccc(F)c(Cl)c2)cc1NC(=O)CCCCCC(=O)NO | < 1000 | – | –
49 | COc1cc(OC)c2c(=O)[nH]c(-c3ccc(OCc4ccc(/C=C/C(=O)NO)cc4)cc3)nc2c1 | 291 | 15500 | –
50 | COCCOc1cc2ncnc(Nc3ccc(/C=C/C(=O)NO)cc3)c2cc1OCCOC | – | – | IC50 (Histone deacetylase 3): 180 nM; inhibition [5]: 84%; IC50 [6]: 560 nM; IC50 (Histone deacetylase 1 [7]): 160 nM; inhibition [8]: 70%
51 | COC(c1c(F)cccc1Cl)c1c[nH]c2ncc(-c3c(C)noc3C)cc12 (stereo not given) | 291 | 15500 | –
52 | Cc1noc(C)c1-c1ccc2c(c1)c(CCc1ccc(F)cc1)cn2CCCCCCC(=O)NO | 291 | 15500 | –
53 | COc1cc(OC)c2c(=O)[nH]c(-c3ccc(OCCCCCCC(=O)NO)cc3)nc2c1 | 291 | 15500 | –
54 | O=C(CCCCCC(=O)Nc1ccc(O)c(C(=O)Nc2ccc(F)c(F)c2)c1)NO | < 1000 | – | –
55 | C#Cc1cccc(NC(=O)c2cc(NC(=O)CCCCCC(=O)NO)c(OC)cc2O)c1 | < 1000 | – | –
56 | COc1cc(OC)c2c(=O)[nH]c(-c3cc(C)c(OCCCCCC(=O)NO)c(C)c3)nc2c1 | 291 | 15500 | –
57 | Cc1sc2c(c1C)C(c1ccc(Cl)cc1)=N[C@@H](CC(=O)OC(C)(C)C)c1nnc(C)n1-2 | 291 | 15500 | –
58 | Cc1cccc(Cc2cn(CCCCCC(=O)NO)c3ccc(-c4c(C)noc4C)cc23)c1 | 291 | 15500 | –
59 | COc1cc(C(=O)NCCCC(=O)NO)ccc1Nc1nccc(-c2cn(C)c3ccccc23)n1 | < 1000 | – | –
60 | COc1cc(C(=O)NCCCCCCC(=O)NO)ccc1Nc1nccc(-c2cn(C)c3ccccc23)n1 | < 1000 | – | –

— ChEMBL document CHEMBL4725227, “Dual-Target Inhibitors Based on HDACs: Novel Antitumor Agents for Cancer Therapy” (J Med Chem, 2020)
